Test results from PubChem BioAssay AID1259407 (Chemical Carcinogenesis Research Information System (CCRIS), 2018).
Active and inactive are the calls of the source. No rule for the calls is given here.

System: CCRIS mutagenicity, Ames/micronucleus/aberration tests
Test: CCRIS mutagenicity studies

Measured: mutagenic call

CCN(N=O)c1ccccc1
inactive: Test System: AMES SALMONELLA TYPHIMURIUM, Strain/Indicator: TA1537, Metabolic Activation: HAMSTER, LIVER, S-9, AROCLOR 1254, Method: PREINCUBATION inactive; negative | Test System: AMES SALMONELLA TYPHIMURIUM, Strain/Indicator: TA1537, Metabolic Activation: HAMSTER, LIVER, S-9, AROCLOR 1254, Method: STANDARD PLATE inactive; negative | Test System: AMES SALMONELLA TYPHIMURIUM, Strain/Indicator: TA1537, Metabolic Activation: HAMSTER, LIVER, S-9, Method: PREINCUBATION inactive; negative | Test System: AMES SALMONELLA TYPHIMURIUM, Strain/Indicator: TA1537, Metabolic Activation: HAMSTER, LIVER, S-9, Method: STANDARD PLATE inactive; negative | Test System: AMES SALMONELLA TYPHIMURIUM, Strain/Indicator: TA1537, Metabolic Activation: MOUSE, LIVER, S-9, AROCLOR 1254, Method: PREINCUBATION inactive; negative | Test System: AMES SALMONELLA TYPHIMURIUM, Strain/Indicator: TA1537, Metabolic Activation: MOUSE, LIVER, S-9, AROCLOR 1254, Method: STANDARD PLATE inactive; negative | Test System: AMES SALMONELLA TYPHIMURIUM, Strain/Indicator: TA1537, Metabolic Activation: MOUSE, LIVER, S-9, Method: PREINCUBATION inactive; negative | Test System: AMES SALMONELLA TYPHIMURIUM, Strain/Indicator: TA1537, Metabolic Activation: MOUSE, LIVER, S-9, Method: STANDARD PLATE inactive; negative | Test System: AMES SALMONELLA TYPHIMURIUM, Strain/Indicator: TA1537, Metabolic Activation: NONE, Method: PREINCUBATION inactive; negative | Test System: AMES SALMONELLA TYPHIMURIUM, Strain/Indicator: TA1537, Metabolic Activation: NONE, Method: STANDARD PLATE inactive; negative | Test System: AMES SALMONELLA TYPHIMURIUM, Strain/Indicator: TA1537, Metabolic Activation: RAT, LIVER, S-9, AROCLOR 1254, Method: PREINCUBATION inactive; negative | Test System: AMES SALMONELLA TYPHIMURIUM, Strain/Indicator: TA1537, Metabolic Activation: RAT, LIVER, S-9, AROCLOR 1254, Method: STANDARD PLATE inactive; negative | Test System: AMES SALMONELLA TYPHIMURIUM, Strain/Indicator: TA1537, Metabolic Activation: RAT, LIVER, S-9, Method: PREINCUBATION inactive; negative | Test System: AMES SALMONELLA TYPHIMURIUM, Strain/Indicator: TA1537, Metabolic Activation: RAT, LIVER, S-9, Method: STANDARD PLATE inactive; negative | Test System: AMES SALMONELLA TYPHIMURIUM, Strain/Indicator: TA1538, Metabolic Activation: HAMSTER, LIVER, S-9, AROCLOR 1254, Method: PREINCUBATION inactive; negative | Test System: AMES SALMONELLA TYPHIMURIUM, Strain/Indicator: TA1538, Metabolic Activation: HAMSTER, LIVER, S-9, AROCLOR 1254, Method: STANDARD PLATE inactive; negative | Test System: AMES SALMONELLA TYPHIMURIUM, Strain/Indicator: TA1538, Metabolic Activation: HAMSTER, LIVER, S-9, Method: PREINCUBATION inactive; negative | Test System: AMES SALMONELLA TYPHIMURIUM, Strain/Indicator: TA1538, Metabolic Activation: HAMSTER, LIVER, S-9, Method: STANDARD PLATE inactive; negative | Test System: AMES SALMONELLA TYPHIMURIUM, Strain/Indicator: TA1538, Metabolic Activation: MOUSE, LIVER, S-9, AROCLOR 1254, Method: PREINCUBATION inactive; negative | Test System: AMES SALMONELLA TYPHIMURIUM, Strain/Indicator: TA1538, Metabolic Activation: MOUSE, LIVER, S-9, AROCLOR 1254, Method: STANDARD PLATE inactive; negative | Test System: AMES SALMONELLA TYPHIMURIUM, Strain/Indicator: TA1538, Metabolic Activation: MOUSE, LIVER, S-9, Method: PREINCUBATION inactive; negative | Test System: AMES SALMONELLA TYPHIMURIUM, Strain/Indicator: TA1538, Metabolic Activation: MOUSE, LIVER, S-9, Method: STANDARD PLATE inactive; negative | Test System: AMES SALMONELLA TYPHIMURIUM, Strain/Indicator: TA1538, Metabolic Activation: NONE, Method: PREINCUBATION inactive; negative | Test System: AMES SALMONELLA TYPHIMURIUM, Strain/Indicator: TA1538, Metabolic Activation: NONE, Method: STANDARD PLATE inactive; negative | Test System: AMES SALMONELLA TYPHIMURIUM, Strain/Indicator: TA1538, Metabolic Activation: RAT, LIVER, S-9, AROCLOR 1254, Method: PREINCUBATION inactive; negative | Test System: AMES SALMONELLA TYPHIMURIUM, Strain/Indicator: TA1538, Metabolic Activation: RAT, LIVER, S-9, AROCLOR 1254, Method: STANDARD PLATE inactive; negative | Test System: AMES SALMONELLA TYPHIMURIUM, Strain/Indicator: TA1538, Metabolic Activation: RAT, LIVER, S-9, Method: PREINCUBATION inactive; negative | Test System: AMES SALMONELLA TYPHIMURIUM, Strain/Indicator: TA1538, Metabolic Activation: RAT, LIVER, S-9, Method: STANDARD PLATE inactive; negative | Test System: E. COLI, Strain/Indicator: WP2 UVRA, Metabolic Activation: HAMSTER, LIVER, S-9, AROCLOR 1254, Method: PREINCUBATION inactive; negative | Test System: E. COLI, Strain/Indicator: WP2 UVRA, Metabolic Activation: HAMSTER, LIVER, S-9, AROCLOR 1254, Method: STANDARD PLATE inactive; negative | Test System: E. COLI, Strain/Indicator: WP2 UVRA, Metabolic Activation: HAMSTER, LIVER, S-9, Method: PREINCUBATION inactive; negative | Test System: E. COLI, Strain/Indicator: WP2 UVRA, Metabolic Activation: HAMSTER, LIVER, S-9, Method: STANDARD PLATE inactive; negative | Test System: E. COLI, Strain/Indicator: WP2 UVRA, Metabolic Activation: MOUSE, LIVER, S-9, AROCLOR 1254, Method: PREINCUBATION inactive; negative | Test System: E. COLI, Strain/Indicator: WP2 UVRA, Metabolic Activation: MOUSE, LIVER, S-9, AROCLOR 1254, Method: STANDARD PLATE inactive; negative | Test System: E. COLI, Strain/Indicator: WP2 UVRA, Metabolic Activation: MOUSE, LIVER, S-9, Method: PREINCUBATION inactive; negative | Test System: E. COLI, Strain/Indicator: WP2 UVRA, Metabolic Activation: MOUSE, LIVER, S-9, Method: STANDARD PLATE inactive; negative | Test System: E. COLI, Strain/Indicator: WP2 UVRA, Metabolic Activation: NONE, Method: PREINCUBATION inactive; negative | Test System: E. COLI, Strain/Indicator: WP2 UVRA, Metabolic Activation: NONE, Method: STANDARD PLATE inactive; negative | Test System: E. COLI, Strain/Indicator: WP2 UVRA, Metabolic Activation: RAT, LIVER, S-9, AROCLOR 1254, Method: PREINCUBATION inactive; negative | Test System: E. COLI, Strain/Indicator: WP2 UVRA, Metabolic Activation: RAT, LIVER, S-9, AROCLOR 1254, Method: STANDARD PLATE inactive; negative | Test System: E. COLI, Strain/Indicator: WP2 UVRA, Metabolic Activation: RAT, LIVER, S-9, Method: PREINCUBATION inactive; negative | Test System: E. COLI, Strain/Indicator: WP2 UVRA, Metabolic Activation: RAT, LIVER, S-9, Method: STANDARD PLATE inactive; negative
